Measured values reported in a melting point compilation (Tetko et al.; mined from patent text by program, amines drawn as free bases though some values may be those of a salt).

| melting point [°C] | SMILES |
| --- | --- |
| 127 to 129 | CC(C)c1cccc(C(C)C)c1NC(=O)C(Cc1ccc(OCc2ccccc2)cc1)NCc1ccccc1 (stereo not given) |
| 122 to 124 | COc1ncc(C(F)(F)F)cc1-c1cccn2nc(Nc3ccc(C4CCN(CC(=O)N(C)C)CC4)cc3)nc12 |
| 118 to 120 | COC(=O)C(c1ccccc1Cl)N1CCc2sc(OC(=O)C(C)(C)C)cc2C1 (stereo not given) |
| 231 to 234 | COc1ncccc1-c1[nH]c2ccccc2c1C1CCN(S(=O)(=O)c2ccccc2)CC1 |
| 234 to 237 | CC(c1oc2ccccc2c(=O)c1-c1cccc(F)c1)n1nc(-c2ccc3c(c2)OCCCO3)c2c(N)ncnc21 (stereo not given) |
| 71 | C=CCOc1ccc(C(=O)c2ccccc2)cc1 |
| 148 to 149 | CC(C)C12COc3cc(Cl)ccc3C1=NN(C(Cl)=Nc1ccc(C(F)(F)F)cc1)C2 (stereo not given) |
| 160 | Cc1ccccc1NC(=O)CN(C(=O)CN1C(=O)c2ccccc2C1=O)c1ccccc1 |
| 140 | COc1ccc2ncc3c(=O)n(-c4ccccc4)oc3c2c1 |
| 254 to 257 | O=C1NC(=S)C(c2c[nH]c3ccccc23)=C1c1c[nH]c2ccccc12 |
| 139 to 140 | COc1cc(COc2nn(Cc3ccccc3)cc2C=O)ccc1OCc1nc(-c2ccco2)oc1C |
| 105 to 108 | CCCN(CCC)c1ccc(S(=O)(=O)N2CCCCC2=O)cc1 |
| 257 to 268 | CCCOc1ccc2c(c1)C(c1ccc(OC)cc1-c1cccc(C(=O)O)c1)C(C(=O)O)C2c1ccc2c(c1)OCO2 (stereo not given) |
| 120 to 125 | CC(C)(C)C(=O)Oc1cc(-c2oc3ccccc3c(=O)c2C(=O)N2CCN(c3ccccn3)CC2)cc(OC(=O)C(C)(C)C)c1OC(=O)C(C)(C)C |
| 182 | CCOc1nc2ccccc2nc1C(=O)Nc1ccc(OCCCCN2CCc3cc(OC)c(OC)cc3C2)cc1 |
| 294 to 295 | O=c1[nH]ncc2[nH]c(-c3ccc(OC(F)F)c(OCC4CC4)c3)cc12 |

| melting point [°C] | SMILES |
| --- | --- |
| 138 to 139 | COC(=O)C1=C(CCc2ccccc2)NC(CC(=O)N2CCN(C)CC2)=C(C(=O)OC)C1c1c(Cl)cccc1Cl (stereo not given) |
| 123 to 124 | O=S(=O)(CF)c1ccc(C2=C(c3ccc(F)cc3)CCC2)cc1 |
| 149 to 150 | O=C1c2ccccc2C(=O)C1(c1ccccc1)N1CCC(c2noc3cc(F)ccc23)CC1 |
| 120 to 122 | CN(C)CCOc1ccc(Nc2nccc(-c3ccncc3)n2)cc1 |
| 230 to 233 | O=c1cc(-c2ccccc2)n(-c2ccccc2Cl)c(-c2ccccc2)c1Cl |
| 197 to 198 | O=Cc1c2ccccc2c(C=O)c2c1ccc1ccccc12 |
| 131 to 133 | O=C1OC(=O)C2=C1SCC(c1ccccc1)S2 (stereo not given) |
| 167 to 168 | O=C(O)CC1c2ccccc2C=Cc2ccccc21 |
| 152 | COc1ccc(C(=O)c2nnc(-c3ccccc3)o2)cc1 |
| 251 to 252 | COc1ccc(Nc2cc(=O)n(-c3ccc(Cl)cc3)nc2-c2nc[nH]n2)cc1 |
| 200 to 202 | COc1ccc(CC(=O)c2c(O)c3cccnc3n(-c3ccccc3)c2=O)c(OC)c1 |
| 104 to 108 | COC(=O)C1=C(Cc2ccccc2)C(=O)NCC1 |
| 125 to 127 | O=CC(CC(=O)c1ccccc1)(c1ccccc1)c1ccccc1 |
| 114 to 117 | COCCc1nc2c(N)nc3ccccc3c2n1CCOCCNS(C)(=O)=O |
| 186 to 189 | COc1ccc(N2CCN(CC(=O)Nc3nc(-c4ccccc4)cs3)CC2)cc1 |

Continued, compound first:

| SMILES | melting point [°C] |
| --- | --- |
| COCC#Cc1ccc(CNC(=O)[C@@H](COC)NC(C)=O)cc1 | 141 to 142 |
| CCCCCCCCCCCCCCc1onc(C(=O)OC)c1O | 92 |
| CCNc1nc(Nc2ccccc2)ncc1C=O | 155 to 157 |
| NC(C=Cc1ccccc1)=NO | 85 to 87 |
| CCN(CC)c1nc2ccccc2n2cnnc12 | 117 to 119 |
| COc1cc(Nc2c(C#N)cnc3cc(-c4ccc(C=O)cc4)sc23)cc(OC)c1OC | 268 to 270 |
| COC(=O)/C=C/c1ccc(-c2ccc(C)cc2)o1 | 113 to 115 |
| CC12CCC(O)CC1CCC1C2C(=NO)CC2(C)C1CCC21OCCO1 (stereo not given) | 158 to 159 |
| CCCC(=O)c1cc2c(=O)cc(C(=O)OCC)[nH]c2cc1C | 173 to 175 |
| CC1OC(n2c(Cl)c(C#N)c3cc(Cl)c(Cl)cc32)C(O)C1O (stereo not given) | 227 to 228 |
| CC(=O)c1ccc(N)c(C#N)c1 | 155 to 159 |
| CC(C(O)=S)c1sc(S(N)(=O)=O)cc1[N+](=O)[O-] (stereo not given) | 154 to 155 |
| O=c1c2cc(F)ccc2nc(CNCc2ccccc2F)n1-c1ccccc1Cl | 140 |
| COC(=O)c1ccc(NC(C)=O)c(C=NO)c1 | 200 to 203 |
| COc1cccc(CCC(=O)C2C(=O)CCC2=O)c1O | 108 to 109 |
| Cc1ccc(O)c2c1CCC2=NO | 148 to 150 |
| COC(=O)c1c[nH]c(CCC2CNc3nc(NC(=O)C(C)(C)C)nc(O)c3C2)c1 (stereo not given) | > 260 |
| CN1C(=O)N(c2ccc(C#N)c(C(F)(F)F)c2)C(=O)C1(CO)c1ccccc1 (stereo not given) | 160 |
| O=C(O)CCCN(C(=O)c1ccc(Cl)c(Cl)c1)c1ccc2c(c1)CCC2 | 58 to 59 |
| COC(=O)N(C(=O)c1ccc(C2=NOC(c3cc(Cl)cc(Cl)c3)(C(F)(F)F)C2)cc1C)c1cncnc1 (stereo not given) | 72 to 76 |

| SMILES | melting point [°C] |
| --- | --- |
| Cc1cc2nccn2nc1OCC(C)(C)CCCCS(N)(=O)=O | 169 to 170 |
| CC(=O)NC[C@H]1CN(c2cc(F)c(N3CCC(n4nnc(N5CCOCC5)n4)CC3)c(F)c2)C(=O)O1 | 232 to 234 |
| COCC(C)(C)NC(=O)C(OC)Oc1ccc2ccc(Br)cc2c1 (stereo not given) | 65 to 67 |
| CCCCCCCNCCCCCO | 47 to 48 |
| Cc1nc2c(c(=O)[nH]1)-c1ccc(Cl)cc1C(c1ccccc1F)=NC2 | 262 to 264 |
| O=C(NCCCCOc1ccc(-n2ccnc2)cc1)c1ccc(I)cc1 | 143 to 145 |
| CCc1c(C)nc(-c2ncc([N+](=O)[O-])n2C)nc1C | 110 |
| CCCCCCCCCCNC(=O)c1ccc(C(=O)NCCCCCCCCCC)c(N(CC(=O)OC)CC(=O)OC)c1 | 76 to 78 |
| NC(=O)N(O)[C@H]1CC[C@@H](Sc2ccccc2)C1 (relative stereo) | 146 to 148 |
| COc1cccc2c1N(CCCO)Cn1cc(CO)cc1-2 | 116 to 118 |
| NC(=O)c1cnc2c(F)c(F)ccc2c1 | 250 |
| COc1ccc(C=C(C#N)C=O)cc1OC | 157 to 158 |
| O=C(O)c1cc(F)c(O)nc1Nc1ccc(F)cc1 | 216 to 217 |
| COC(=O)c1cc(C(=O)NCCN(C)C)c2cc(Cc3ccc(F)cc3)cnc2c1O | 115 to 116 |
| COc1cc(OC)nc(C2(O)OC(=O)c3c(Cl)ccc(Cl)c32)n1 (stereo not given) | 161 to 175 |
| CCc1[nH]nc2c1C(=O)c1c(NC(N)=O)cccc1-2 | > 250 |
| C#CCNC(=O)Oc1cccc2c1OC(C)(C)O2 | 107 to 109 |
| COCCOCOc1c(C(C)(C)C)cc(-c2ccc(C#N)c(C#N)c2)cc1C(C)(C)C | 130 to 131 |
| CC1(CNC(=O)CCl)OCCO1 | 128 to 130 |
